# According to patent US7713994B2 (Wyeth LLC, priority 2005, dated 2010):
# pIC50: −log10 of the molar value.
# Tests used:
# cyclin D1/cdk 4 enzyme = molecular target: T1, cyclin D1/cdk 4 enzyme (Homo sapiens, UniProt P11802); experiment: CDK4 ELISA kinase assay (phospho-Rb ser 795 detection); type: biochemical; conditions: In Vitro Enzyme Assay, cyclin D1/cdk 4, read-out: CDK4 IC50
# T1 construct: made in house; host or cells: Sf9 insect cells, recombinant baculovirus
# In short: (§1)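 Partially purified Sf9-expressed cyclin D1/CDK4, cyclin E/CDK2 or cyclin B/CDK1 phosphorylated plate-bound GST-Rb C-terminal fragment with 200 μM ATP at 30° C for 1 h.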
# cyclin E/CDK2 enzyme = molecular target: T2, cyclin E/CDK2 enzyme (Homo sapiens, UniProt P24941); experiment: CDK2 ELISA kinase assay (phospho-Rb ser 795 detection); type: biochemical; conditions: In Vitro Enzyme Assay, cyclin E/CDK2, read-out: CDK2 IC50
# T2 construct: made in house; host or cells: Sf9 insect cells, recombinant baculovirus
# In short: as §1
# cyclin B/CDK1 enzyme = molecular target: T3, cyclin B/CDK1 enzyme (Homo sapiens, UniProt P06493); experiment: CDK1 ELISA kinase assay (phospho-Rb ser 795 detection); type: biochemical; conditions: In Vitro Enzyme Assay, cyclin B/CDK1, read-out: CDK1 IC50
# T3 construct: purchased New England BioLabs; host or cells: Sf9 insect cells, recombinant baculovirus
# In short: as §1
# BT474 = experiment: Cytotoxicity assay (SRB), BT474; type: cell-based; conditions: Homo sapiens, BT-474, 144 h, BT474 cells, 6 days, SRB; read-out: In Vitro Cellular Activity IC50 BT474
# In short: (§2)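 Percentage survival is derived from SRB absorbance (540 nm) versus untreated cells. Exposures were 3 days, except 6 days for BT474, at 37 °C and 7% CO2.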
# HCT-116 = experiment: Cytotoxicity assay (SRB), HCT-116; type: cell-based; conditions: Homo sapiens, HCT-116, 72 h, HCT116 cells, 3 days, SRB; read-out: In Vitro Cellular Activity IC50 HCT116
# In short: as §2
# LoVo = experiment: Cytotoxicity assay (SRB), LoVo; type: cell-based; conditions: Homo sapiens, LoVo, 72 h, LoVo cells, 3 days, SRB; read-out: In Vitro Cellular Activity IC50 LOVO
# In short: as §2
# MCF-7 = experiment: Cytotoxicity assay (SRB), MCF-7; type: cell-based; conditions: Homo sapiens, MCF7, 72 h, MCF-7 cells, 3 days, SRB; read-out: In Vitro Cellular Activity IC50 MCF-7
# In short: as §2
# T3 sequence (P06493 whole entry): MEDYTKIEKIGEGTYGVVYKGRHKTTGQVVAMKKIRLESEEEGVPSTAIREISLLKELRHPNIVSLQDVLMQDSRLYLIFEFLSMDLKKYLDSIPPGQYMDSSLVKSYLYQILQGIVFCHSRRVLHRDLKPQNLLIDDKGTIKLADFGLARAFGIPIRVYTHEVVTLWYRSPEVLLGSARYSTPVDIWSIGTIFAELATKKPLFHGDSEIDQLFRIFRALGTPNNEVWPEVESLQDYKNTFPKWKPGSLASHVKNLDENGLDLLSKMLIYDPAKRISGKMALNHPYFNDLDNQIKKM
# T3 sequence (P14635 whole entry partner): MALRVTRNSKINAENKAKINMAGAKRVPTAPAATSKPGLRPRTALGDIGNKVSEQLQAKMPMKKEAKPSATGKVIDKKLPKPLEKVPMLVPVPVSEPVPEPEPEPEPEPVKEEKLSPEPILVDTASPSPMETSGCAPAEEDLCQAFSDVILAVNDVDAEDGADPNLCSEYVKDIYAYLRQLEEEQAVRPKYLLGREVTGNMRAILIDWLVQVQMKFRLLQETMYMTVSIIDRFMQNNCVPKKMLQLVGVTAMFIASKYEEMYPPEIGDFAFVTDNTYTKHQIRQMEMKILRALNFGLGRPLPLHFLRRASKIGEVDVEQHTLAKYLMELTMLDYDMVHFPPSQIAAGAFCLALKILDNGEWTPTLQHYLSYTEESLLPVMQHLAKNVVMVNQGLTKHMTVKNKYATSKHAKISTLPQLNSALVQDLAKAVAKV
# T1 sequence (P11802 whole entry, species assumed): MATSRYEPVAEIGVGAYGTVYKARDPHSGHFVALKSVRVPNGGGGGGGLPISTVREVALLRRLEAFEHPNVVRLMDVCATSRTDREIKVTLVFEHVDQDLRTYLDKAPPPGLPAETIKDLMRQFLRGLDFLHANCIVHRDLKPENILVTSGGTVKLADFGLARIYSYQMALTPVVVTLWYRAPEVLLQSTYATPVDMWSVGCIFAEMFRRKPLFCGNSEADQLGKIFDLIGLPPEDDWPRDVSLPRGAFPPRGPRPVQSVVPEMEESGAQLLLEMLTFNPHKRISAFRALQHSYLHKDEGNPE
# T1 sequence (P24385 whole entry partner, species assumed): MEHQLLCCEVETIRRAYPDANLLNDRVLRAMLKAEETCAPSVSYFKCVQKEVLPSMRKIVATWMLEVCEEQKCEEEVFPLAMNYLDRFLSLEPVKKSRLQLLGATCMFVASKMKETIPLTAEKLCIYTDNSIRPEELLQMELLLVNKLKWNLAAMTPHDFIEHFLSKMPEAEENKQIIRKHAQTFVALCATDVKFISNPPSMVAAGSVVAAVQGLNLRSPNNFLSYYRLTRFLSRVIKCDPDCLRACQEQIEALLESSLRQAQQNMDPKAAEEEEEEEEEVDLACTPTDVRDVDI
smiles,measurement,setting,value
"O=C1NC(=O)c2ccc(-c3cccc(F)c3)cc2C1=CNCc1ccc(O)c(O)c1 [Example 768, 4-[(3,4-Dihydroxy-benzylamino)-methylene]-6-(3-fluoro-phenyl)-4H-isoquinoline-1,3-dione]",pIC50,cyclin D1/cdk 4 enzyme,6.26
same,pIC50,cyclin E/CDK2 enzyme,5.02
same,pIC50,cyclin B/CDK1 enzyme,4.69
same,pIC50,BT474,4.54
same,pIC50,HCT-116,4.56
same,pIC50,LoVo,4.59
same,pIC50,MCF-7,4.55
"O=C1NC(=O)c2ccc(-c3ccccc3F)cc2C1=CNCc1ccc(O)c(O)c1 [Example 769, 4-[(3,4-Dihydroxy-benzylamino)-methylene]-6-(2-fluoro-phenyl)-4H-isoquinoline-3,3-dione]",pIC50,cyclin D1/cdk 4 enzyme,7.52
same,pIC50,cyclin E/CDK2 enzyme,5.41
same,pIC50,cyclin B/CDK1 enzyme,4.83
same,pIC50,BT474,4.75
same,pIC50,HCT-116,4.87
same,pIC50,LoVo,4.81
same,pIC50,MCF-7,4.75
"O=C1NC(=O)c2ccc(-c3cccc(C(=O)O)c3)cc2C1=CNCc1ccc(O)c(O)c1 [Example 771, 3-{4-[(3,4-Dihydroxy-benzylamino)-methylene]-1,3-dioxo-1,2,3,4-tetrahydro-isoquinolin-6-yl}-benzoic acid]",pIC50,cyclin D1/cdk 4 enzyme,6.09
same,pIC50,cyclin E/CDK2 enzyme,5.00
same,pIC50,cyclin B/CDK1 enzyme,4.58
same,pIC50,BT474,4.48
same,pIC50,HCT-116,4.40
same,pIC50,LoVo,4.32
same,pIC50,MCF-7,< 4.30
"O=C1NC(=O)c2ccc(-c3ccc(C(F)(F)F)cc3)cc2C1=CNCc1ccc(O)c(O)c1 [Example 772, 4-[(3,4-Dihydroxy-benzylamino)-methylene]-6-(4-trifluoromethyl-phenyl)-4H-isoquinoline-1,3-dione]",pIC50,cyclin D1/cdk 4 enzyme,6.29
same,pIC50,cyclin E/CDK2 enzyme,4.97
same,pIC50,cyclin B/CDK1 enzyme,4.39
same,pIC50,BT474,4.55
same,pIC50,HCT-116,4.81
same,pIC50,LoVo,4.81
same,pIC50,MCF-7,4.91
"O=C1NC(=O)c2ccc(-c3cccc(C(F)(F)F)c3)cc2C1=CNCc1ccc(O)c(O)c1 [Example 773, 4-[(3,4-Dihydroxy-benzylamino)-methylene]-6-(3-trifluoromethyl-phenyl)-4H-isoquinoline-1,3-dione]",pIC50,cyclin D1/cdk 4 enzyme,5.93
same,pIC50,cyclin E/CDK2 enzyme,4.78
same,pIC50,cyclin B/CDK1 enzyme,< 4.30
same,pIC50,BT474,4.68
same,pIC50,HCT-116,4.86
same,pIC50,LoVo,4.84
same,pIC50,MCF-7,4.90
"CC(=O)c1cccc(-c2ccc3c(c2)C(=CNCc2ccc(O)c(O)c2)C(=O)NC3=O)c1 [Example 776, 6-(3-Acetyl-phenyl)-4-[(3,4-dihydroxy-benzylamino)-methylene]-4H-isoquinoline-1,3-dione]",pIC50,cyclin D1/cdk 4 enzyme,6.62
same,pIC50,cyclin E/CDK2 enzyme,4.86
same,pIC50,cyclin B/CDK1 enzyme,< 4.30
same,pIC50,BT474,4.76
same,pIC50,HCT-116,4.82
same,pIC50,LoVo,4.99
same,pIC50,MCF-7,4.95
"O=C1NC(=O)c2ccc(-c3ccc(Cl)cc3)cc2C1=CNCc1ccc(O)c(O)c1 [Example 778, 6-(4-Chloro-phenyl)-4-[(3,4-dihydroxy-benzylamino)-methylene]-4H-isoquinoline-1,3-dione]",pIC50,cyclin D1/cdk 4 enzyme,6.92
same,pIC50,cyclin E/CDK2 enzyme,5.25
same,pIC50,cyclin B/CDK1 enzyme,4.56
same,pIC50,BT474,4.56
same,pIC50,HCT-116,4.92
same,pIC50,LoVo,5.02
same,pIC50,MCF-7,4.99
"O=C1NC(=O)c2ccc(-c3cccc(Cl)c3)cc2C1=CNCc1ccc(O)c(O)c1 [Example 779, 6-(3-Chloro-phenyl)-4-[(3,4-dihydroxy-benzylamino)-methylene]-4H-isoquinoline-1,3-dione]",pIC50,cyclin D1/cdk 4 enzyme,6.13
same,pIC50,cyclin E/CDK2 enzyme,4.51
same,pIC50,cyclin B/CDK1 enzyme,< 4.30
same,pIC50,BT474,4.69
same,pIC50,HCT-116,4.82
same,pIC50,LoVo,4.85
same,pIC50,MCF-7,4.90
"O=C1NC(=O)c2ccc(-c3ccccc3Cl)cc2C1=CNCc1ccc(O)c(O)c1 [Example 780, 6-(2-Chloro-phenyl)-4-[(3,4-dihydroxy-benzylamino)-methylene]-4H-isoquinoline-1,3-dione]",pIC50,cyclin D1/cdk 4 enzyme,6.17
same,pIC50,cyclin E/CDK2 enzyme,5.42
same,pIC50,cyclin B/CDK1 enzyme,4.64
same,pIC50,BT474,4.75
same,pIC50,HCT-116,4.84
same,pIC50,LoVo,4.74
same,pIC50,MCF-7,4.72
"Cc1ccc(-c2ccc3c(c2)C(=CNCc2ccc(O)c(O)c2)C(=O)NC3=O)cc1 [Example 781, 4-[(3,4-Dihydroxy-benzylamino)-methylene]-6-p-tolyl-4H-isoquinoline-1,3-dione]",pIC50,cyclin D1/cdk 4 enzyme,6.13
same,pIC50,cyclin E/CDK2 enzyme,4.56
same,pIC50,cyclin B/CDK1 enzyme,< 4.30
same,pIC50,BT474,4.63
same,pIC50,HCT-116,4.84
same,pIC50,LoVo,4.85
same,pIC50,MCF-7,4.90
"N#Cc1ccc(-c2ccc3c(c2)C(=CNCc2ccc(O)c(O)c2)C(=O)NC3=O)cc1 [Example 784, 4-{4-[(3,4-Dihydroxy-benzylamino)-methylene]-1,3-dioxo-1,2,3,4-tetrahydro-isoquinolin-6-yl}-benzonitrile]",pIC50,cyclin D1/cdk 4 enzyme,7.22
same,pIC50,cyclin E/CDK2 enzyme,5.14
same,pIC50,cyclin B/CDK1 enzyme,4.56
same,pIC50,BT474,< 4.30
same,pIC50,HCT-116,5.06
same,pIC50,LoVo,4.45
same,pIC50,MCF-7,4.86
"N#Cc1cccc(-c2ccc3c(c2)C(=CNCc2ccc(O)c(O)c2)C(=O)NC3=O)c1 [Example 785, 3-{4-[(3,4-Dihydroxy-benzylamino)-methylene]-1,3-dioxo-1,2,3,4-tetrahydro-isoquinolin-6-yl}-benzonitrile]",pIC50,cyclin D1/cdk 4 enzyme,5.92
same,pIC50,cyclin E/CDK2 enzyme,4.42
same,pIC50,cyclin B/CDK1 enzyme,< 4.30
same,pIC50,BT474,< 4.30
same,pIC50,HCT-116,< 4.30
same,pIC50,LoVo,< 4.30
same,pIC50,MCF-7,4.34
"CSc1ccc(-c2ccc3c(c2)C(=CNCc2ccc(O)c(O)c2)C(=O)NC3=O)cc1 [Example 792, 4-[(3,4-Dihydroxy-benzylamino)-methylene]-6-(4-methylsulfanyl-phenyl)-4H-isoquinoline-1,3-dione]",pIC50,cyclin D1/cdk 4 enzyme,6.33
same,pIC50,cyclin E/CDK2 enzyme,4.65
same,pIC50,cyclin B/CDK1 enzyme,< 4.30
same,pIC50,BT474,4.39
same,pIC50,HCT-116,4.83
same,pIC50,LoVo,4.81
same,pIC50,MCF-7,4.88
"CN1CCN(c2ccc(NC=C3C(=O)NC(=O)c4ccc(C=CCCCO)cc43)cc2)CC1 [Example 797, 6-(5-Hydroxy-pent-1-enyl)-4-{[4-(4-methyl-piperazin-1-yl)-phenylamino]-methylene}-4H-isoquinoline-1,3-dione]",pIC50,cyclin D1/cdk 4 enzyme,6.05
same,pIC50,cyclin E/CDK2 enzyme,< 4.30
same,pIC50,cyclin B/CDK1 enzyme,< 4.30
same,pIC50,BT474,4.71
same,pIC50,HCT-116,5.19
same,pIC50,LoVo,5.20
same,pIC50,MCF-7,5.17
"COc1cccc(CC=Cc2ccc3c(c2)C(=CNCc2ccc(O)c(O)c2)C(=O)NC3=O)c1O [Example 804, 4-[(3,4-Dihydroxy-benzylamino)-methylene]-6-[3-(2-hydroxy-3-methoxy-phenyl)-propenyl]-4H-isoquinoline-1,3-dione]",pIC50,cyclin D1/cdk 4 enzyme,6.00
same,pIC50,cyclin E/CDK2 enzyme,4.74
same,pIC50,cyclin B/CDK1 enzyme,4.43
same,pIC50,BT474,5.01
same,pIC50,HCT-116,5.21
same,pIC50,LoVo,4.91
same,pIC50,MCF-7,5.01
"CN1CCN(c2ccc(NC=C3C(=O)NC(=O)c4ccc(-c5ccc(CO)cc5)cc43)cc2)CC1 [Example 808, 6-(4-Hydroxymethyl-phenyl)-4-{[4-(4-methyl-piperazin-1-yl)-phenylamino]-methylene}-4H-isoquinoline-1,3-dione]",pIC50,cyclin D1/cdk 4 enzyme,6.42
same,pIC50,cyclin E/CDK2 enzyme,< 4.30
same,pIC50,cyclin B/CDK1 enzyme,< 4.30
same,pIC50,BT474,5.10
same,pIC50,HCT-116,5.80
same,pIC50,LoVo,5.27
same,pIC50,MCF-7,5.07
"O=C1NC(=O)c2ccc(-c3ccc4c(c3)OCO4)cc2C1=CNCc1ccc(O)c(O)c1 [Example 812, 6-Benzo[1,3]dioxol-5-yl-4-[(3,4-dihydroxy-benzylamino)-methylene]-4H-isoquinoline-1,3-dione]",pIC50,cyclin D1/cdk 4 enzyme,6.89
same,pIC50,cyclin E/CDK2 enzyme,4.55
same,pIC50,cyclin B/CDK1 enzyme,< 4.30
same,pIC50,BT474,< 4.30
same,pIC50,HCT-116,4.35
same,pIC50,LoVo,< 4.30
same,pIC50,MCF-7,4.30
